Assay results as given in patent publication US20220257805A1, “PHARMACEUTICAL FORMULATIONS AND METHODS FOR DELIVERING A THERAPEUTIC, DIAGNOSTIC, OR IMAGING AGENT TO CD206” (Syracuse University, priority 2019, published 2022).
pKd: −log10 of the molar value. Entries after “also recorded” stand apart in the source; their conditions may differ.

Columns and labels:
[1] = system: HepG2 cells; assay: Flow cytometry of uptake in HepG2 cells (ASGPR positive); type: cell-based; conditions: 100 nM in HBSS
Procedure: (§1) Cellular association via the typical holo-IF target receptor, CUBN, was conducted in CUBN positive, CD206 negative (see western blot, FIG. 10) BN16 (Brown Norway rat yolk) cells via flow cytometry using fluorescent B12-Cy5 to show functionalization of the IF-B12 complex in vitro (FIG. 3).
(§2) Flow cytometry: Flow cytometry analyses were carried out on a Becton Dickinson LSRII Cell Analyzer.
(§3) Cell culture: Cell lines J774A.1 (ATCC TIB-67; CD206 positive), CHO-K1 (ATCC CCL-61; control line) and HepG2 (SIGMA 85011430; ASGPR positive) were obtained from the American Type Culture Collection (ATCC). BN16 cells (cubilin positive) were kindly provided by Prof. Pierre Verroust (INSERM, Paris, France). J774A.1 and BN16 cells were cultured as adherent monolayers in DMEM supplemented with 10% FBS and 1% pen/strep (Penicillin-streptomycin solution with 10,000 units penicillin and 10 mg/mL streptomycin in 0.9% NaCl obtained from Thermo Fisher). CHO-K1 were cultured as adherent monolayers in F12-K supplemented with 10% FBS and 1% pen/strep. Cells were incubated at 37° C. with 5% C02. Hank's balanced salt solution (HBSS) was purchased from Sigma. […]
(§4) Flow cytometry measurements of cellular internalization: Cells were plated on a 6-well plate and allowed to adhere for at least 24 h until at least 80% confluency. […] All cells were excited at 640 nm and detected at 660±20 nm.

[2] = system: CHO-K1 cells; assay: Flow cytometry of uptake in CHO-K1 cells (CUBN and CD206 free); type: cell-based, Chinese hamster; conditions: 100 nM in HBSS
Procedure: as §1, §2, §3, §4

[3] = system: J774A.1 cells; assay: Flow cytometry of uptake in J774A.1 macrophage cells (CUBN-, CD206+), with or without mannan block; type: cell-based
Procedure: Adding mannan (2 mg/mL), 45 minutes prior to, and concomitant with IF-B12-Cy5 incubation, reduced IF-B12-Cy5 uptake (FIG. 3) supporting a mannose receptor mediated process.
as §2
Cell culture: Cell lines J774A.1 (ATCC TIB-67; CD206 positive), CHO-K1 (ATCC CCL-61; control line) and HepG2 (SIGMA 85011430; ASGPR positive) were obtained from the American Type Culture Collection (ATCC). BN16 cells (cubilin positive) were kindly provided by Prof. Pierre Verroust (INSERM, Paris, France). J774A.1 and BN16 cells were cultured as adherent monolayers in DMEM supplemented with 10% FBS and 1% pen/strep (Penicillin-streptomycin solution with 10,000 units penicillin and 10 mg/mL streptomycin in 0.9% NaCl obtained from Thermo Fisher). CHO-K1 were cultured as adherent monolayers in F12-K supplemented with 10% FBS and 1% pen/strep. Cells were incubated at 37° C. with 5% C02. Hank's balanced salt solution (HBSS) was purchased from Sigma. Charcoal stripped fetal bovine serum (FBS) and were purchased from Sigma.
as §4

[4] = system: BN16 cells; assay: Flow cytometry of cellular association in BN16 cells (CUBN positive, CD206 negative); type: cell-based, Brown Norway rat; conditions: 200 nM, HBSS, 1 h
Procedure: as §1, §2, §3, §4

[5] = biological target: T1, human gastric IF (Homo sapiens, UniProt P27352); assay: IF binding affinity, radiometric chase assay using 57Co-B12; conditions: cold tracer
T1 construct: purchased Xeragenx LLC (St. Louis, Mo., USA); host or cells: Arabidopsis thaliana
Procedure: To confirm IF binding of ^89Zr-B12, a radiometric chase assay[15] was completed with a ‘cold’ ^91Zr bound to B12 tracer (^91Zr-B12) and compared to free B12, as cyanocobalamin (CN-B12) (FIG. 2). ^91Zr-B12 was made using B12-DFO and chelated to ^91ZrCl4 at pH 7-7.5. IF binding of ^91Zr-B12 was maintained at low nanomolar levels (1.57 nM), similar to CN-B12 control (1.36 nM).
IF binding affinities: To confirm that ^89Zr-B12 will bind to IF, a radiometric chase assay, using ^57Co-B12 was completed (as previously reported)[15] with a cold tracer (^91Zr-B12) and compared to free B12, as cyanocobalamin (CN-B12). Zr-B12 was made using B12-DFO and chelated to ZrCl4 at pH 7.5.

T1 sequence (P27352 19-417): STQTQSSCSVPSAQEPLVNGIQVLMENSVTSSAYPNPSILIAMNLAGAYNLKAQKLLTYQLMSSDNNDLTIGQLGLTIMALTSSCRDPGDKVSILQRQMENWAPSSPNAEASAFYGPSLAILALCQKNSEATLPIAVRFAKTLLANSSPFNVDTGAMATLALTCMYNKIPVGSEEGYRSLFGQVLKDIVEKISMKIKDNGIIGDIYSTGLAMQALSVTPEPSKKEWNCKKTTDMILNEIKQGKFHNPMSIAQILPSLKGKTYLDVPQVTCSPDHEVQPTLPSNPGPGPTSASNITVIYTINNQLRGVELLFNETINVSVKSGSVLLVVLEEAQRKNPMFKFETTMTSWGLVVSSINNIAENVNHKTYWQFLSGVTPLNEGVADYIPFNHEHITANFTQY

pKd [5] | Substance | uptake / internalization (flow cytometry) [1] | uptake / internalization (flow cytometry) [2] | binding / uptake (flow cytometry) ([3]; 200 nM, HBSS, 1 h, 37° C.) | uptake with mannan block ([3]; mannan 2 mg/mL 45 minutes prior to and concomitant with incubation) | cellular association (flow cytometry) at 4° C. ([4]; 4° C.) | cellular association (flow cytometry) ([4]; 37° C.)
 | IF-B12-Cy5: B12-Cy5 bound to recombinant human intrinsic factor (IF-B12 complex) | not internalized | Neither compound was internalized | binding | reduced; also recorded: near complete block in uptake | Reduction in binding (or internalization) | significant association
8.87 | cyanocobalamin [CN-B12] |  |  |  |  |  | 
